Tests used:
[1] = system: AMPA receptor (rat cortex mRNA expressed in Xenopus oocytes); assay: excitatory currents induced by AMPA in Xenopus oocytes (voltage-clamp); assay type: cell-based, rat (male Wistar) receptors expressed in Xenopus oocytes; conditions: for EC2X (concentration which doubles the intensity of the current induced by AMPA alone) / EC5X (concentration which increases five-fold the intensity of the current induced by AMPA alone): Xenopus oocytes, rat cortex mRNA, agonist AMPA (30 mM [sic])
Method: Study of the excitatory currents induced by AMPA in Xenopus oocytes mRNAs are prepared from male Wistar rat cerebral cortex by the guanidium thiocyanate/phenol/chloroform method. The poly(A^+) mRNAs are isolated by chromatography on oligo-dT cellulose and injected at an amount of 50 ng per oocyte. The oocytes are left to incubate for 2 to 3 days at 18° C. in order to allow expression of the receptors, and are then stored at 8°-10° C. The electrophysiological recording is performed in a plexiglass® chamber at 20°-24° C. in OR2 medium (J. Exp. Zool., 1973, 184, 321-334) by the "voltage-clamp" method with 2 electrodes, a 3rd electrode placed in the bath serving as reference. All the compounds are applied via the incubation medium and the electric current is measured at the end of the period of application. The AMPA is used at a concentration of […]. The concentration which doubles (EC2X) or which increases five-fold (EC5X) the intensity of the current induced by AMPA alone (50 to 100 nA) is determined for each compound studied.

[2] = Il Farmaco, Ed. Sc., 1978, 33, 713-720; cited from earlier work
[3] = system: AMPA receptors of neuronal cells; conditions: Journal of Neurochemistry, 1992, 58, 1199-1204; cited from earlier work
kainate (KA) = assay: currents induced by kainate (KA) in Xenopus oocytes (selectivity); assay type: cell-based, rat (male Wistar) receptors expressed in Xenopus oocytes
NMDA = assay: currents induced by NMDA in Xenopus oocytes (selectivity); assay type: cell-based, rat (male Wistar) receptors expressed in Xenopus oocytes
[4] = system: slice of hippocampus (dentate gyrus EPSP); assay: excitatory postsynaptic potentials (EPSP) induced by electrical stimulation on a slice of hippocampus; assay type: cell-based, male Wistar rat; conditions: compared with reference compounds, racemic mixture and R isomer
Method: Study of the synaptic excitatory potentials induced by electrical stimulation on a slice of hippocampus
Transverse slices of hippocampus ([…]) from a male Wistar rat are prepared using a "tissue chopper" and then incubated for 45 minutes in calcium-free medium containing 10 mM Mg^++. They are then stabilized in Krebs adjusted to pH 7.35 and oxygenated with O2 /CO2 (95%/5%) at room temperature.
The slices are submerged at 35° C. and the excitatory postsynaptic potentials (EPSP) are recorded in the dendritic field of the […] of the dentate gyms during stimulation ([…]) every 30 seconds of the perforating route via a tungsten bipolar electrode.
The EPSPs are acquired and analyzed by means of an A-D converter, a TL-1 interface and "pCLAMP" software.
The amplitude and duration of the EPSPs are evaluated on the negative wave relative to the base current.
The compounds are applied for 10 to 20 minutes in the superfusion bath containing MgSO4 (1 mM) in order to block the activation of the NMDA receptors. The concentration increasing the amplitude of the EPSP by 50% (A50) is determined for each compound.

SMILES	EC2X (concentration which doubles the intensity of the current induced by AMPA alone) [1]	EC5X (concentration which increases five-fold the intensity of the current induced by AMPA alone) [1]	further results
CC1=NS(=O)(=O)c2cc(Cl)ccc2N1 [Diazoxide, reference compound]	400 µM	1000 µM	–
O=S1(=O)N[C@@H]2CCCN2c2ccccc21 [R isomer]	300 µM	> 1000 µM	–
O=S1(=O)NC2CCCN2c2ccccc21 (racemic) [Racemic mixture, 5,5-Dioxo-2,3,3a,4-tetrahydro-1H-pyrrolo[2,1-c]-[1,2,4]benzothiadiazine, reference compound]	60 µM	160 µM	hypotensive and bradycardiac activities [2]: having hypotensive and bradycardiac activities
COc1ccc(C(=O)N2CCCC2=O)cc1 [Aniracetam, reference compound]	1300 µM	5000 µM	modulation of AMPA receptors of neuronal cells [3]: positively modulating the AMPA receptors of neuronal cells
O=S1(=O)N[C@H]2CCCN2c2ccccc21 [Example 1, (3aS)-5,5-Dioxo-2,3,3a,4-tetrahydro-1H-pyrrolo[2,1-c][1,2,4]benzothiadiazine]	35 µM	70 µM	potentiation of the excitatory effects of AMPA ([1]; compared with reference compounds, racemic mixture and R isomer): very strongly potentiates the excitatory effects of AMPA; EC2X, AMPA ([1]; selectivity table, agonist AMPA): 35 µM; potentiation of the current (KA agonist) (kainate (KA)): no potentiation of the current is observed; EC2X, KA (kainate (KA); selectivity table, agonist kainate (KA)): > 300 µM; potentiation of the current (NMDA agonist) (NMDA): no potentiation of the current is observed; EC2X, NMDA (NMDA; selectivity table, agonist NMDA): > 300 µM; increase of the amplitude of the EPSP [4]: increases the amplitude of the EPSP at lower doses than the reference compounds, the racemic mixture or the R isomer
